In paper PMC11859928, “Design, Synthesis, and Antiproliferative Activity of Novel Indole/1,2,4-Triazole Hybrids as Tubulin Polymerization Inhibitors” (Pharmaceuticals, 2025):

What was measured:
Assay in all cases: NCI one-dose assay
[1] = tested on: KM12; format: cell-based; details: Homo sapiens, KM12, Colon cancer, read-out: Cell growth inhibition %
[2] = tested on: U251; format: cell-based; details: Homo sapiens, U-251, U251, CNS cancer, read-out: Cell growth inhibition %
[3] = tested on: COLO 205; format: cell-based; details: Homo sapiens, COLO 205, Colon cancer, read-out: Cell growth inhibition %
[4] = tested on: MALME-3M; format: cell-based; details: Homo sapiens, Melanoma, read-out: Cell growth inhibition %
[5] = tested on: CAKI-1; format: cell-based; details: Homo sapiens, CAKI-1, Renal cancer, read-out: Cell growth inhibition %
[6] = tested on: RPMI-8226; format: cell-based; details: Homo sapiens, RPMI-8226, Leukemia, read-out: Cell growth inhibition %
[7] = tested on: SW-620; format: cell-based; details: Homo sapiens, SW-620, Colon cancer, read-out: Cell growth inhibition %
[8] = tested on: NCI-H522; format: cell-based; details: Homo sapiens, NCI-H522, Non-small cell lung cancer, read-out: Cell growth inhibition %
[9] = tested on: NCI-H322M; format: cell-based; details: Homo sapiens, Non-small cell lung cancer, read-out: Cell growth inhibition %
[10] = tested on: NCI-H23; format: cell-based; details: Homo sapiens, NCI-H23, Non-small cell lung cancer, read-out: Cell growth inhibition %
[11] = tested on: CCRF-CEM; format: cell-based; details: Homo sapiens, Leukemia, read-out: Cell growth inhibition %
[12] = tested on: K-562; format: cell-based; details: Homo sapiens, K562, K-562, Leukemia, read-out: Cell growth inhibition %
[13] = tested on: SNB-75; format: cell-based; details: Homo sapiens, SNB-75, CNS cancer, read-out: Cell growth inhibition %
[14] = tested on: ACHN; format: cell-based; details: Homo sapiens, Renal cancer, read-out: Cell growth inhibition %
[15] = tested on: HL-60(TB); format: cell-based; details: Homo sapiens, Leukemia, read-out: Cell growth inhibition %
[16] = tested on: T-47D; format: cell-based; details: Homo sapiens, T47D, Breast cancer, read-out: Cell growth inhibition %
[17] = tested on: NCI-H226; format: cell-based; details: Homo sapiens, NCI-H226, Non-small cell lung cancer, read-out: Cell growth inhibition %
[18] = tested on: PC-3; format: cell-based; details: Homo sapiens, PC-3, Prostate cancer, read-out: Cell growth inhibition %
[19] = tested on: SK-MEL-28; format: cell-based; details: Homo sapiens, SK-MEL-28, Melanoma, read-out: Cell growth inhibition %
[20] = tested on: SK-MEL-2; format: cell-based; details: Homo sapiens, SK-MEL-2, Melanoma, read-out: Cell growth inhibition %
[21] = tested on: HOP-62; format: cell-based; details: Homo sapiens, HOP-62, Non-small cell lung cancer, read-out: Cell growth inhibition %
[22] = tested on: SNB-19; format: cell-based; details: Homo sapiens, SNB-19, CNS cancer, read-out: Cell growth inhibition %
[23] = tested on: HCC-2998; format: cell-based; details: Homo sapiens, HCC-2998, Colon cancer, read-out: Cell growth inhibition %
[24] = tested on: UACC-257; format: cell-based; details: Homo sapiens, UACC-257, Melanoma, read-out: Cell growth inhibition %
[25] = tested on: OVCAR-3; format: cell-based; details: Homo sapiens, OVCAR-3, Ovarian cancer, read-out: Cell growth inhibition %
[26] = tested on: DU-145; format: cell-based; details: Homo sapiens, DU-145, Prostate cancer, read-out: Cell growth inhibition %
[27] = tested on: OVCAR-5; format: cell-based; details: Homo sapiens, OVCAR-5, Ovarian cancer, read-out: Cell growth inhibition %
[28] = tested on: MCF7; format: cell-based; details: Homo sapiens, MCF7, Breast cancer, read-out: Cell growth inhibition %
[29] = tested on: TK-10; format: cell-based; details: Homo sapiens, TK-10, Renal cancer, read-out: Cell growth inhibition %
[30] = tested on: OVCAR-4; format: cell-based; details: Homo sapiens, OVCAR-4, Ovarian cancer, read-out: Cell growth inhibition %
[31] = tested on: HCT-116; format: cell-based; details: Homo sapiens, HCT-116, Colon cancer, read-out: Cell growth inhibition %
[32] = tested on: SN12C; format: cell-based; details: Homo sapiens, Renal cancer, read-out: Cell growth inhibition %
[33] = tested on: HOP-92; format: cell-based, human; details: Homo sapiens, HOP-92, HOP-92, Non-small cell lung cancer, read-out: Cell growth inhibition %
[34] = tested on: UO-31; format: cell-based, human; details: Homo sapiens, UO-31, UO-31, Renal cancer, read-out: Cell growth inhibition %
[35] = tested on: 786-0; format: cell-based, human; details: for inhibition at 10 µM: Homo sapiens, 786-0, 786-0, Renal cancer, read-out: Cell growth inhibition %

Row | Structure (SMILES) | inhibition at 10 µM [1] [%] | inhibition at 10 µM [2] [%] | inhibition at 10 µM [3] [%] | inhibition at 10 µM [4] [%] | inhibition at 10 µM [5] [%] | inhibition at 10 µM [6] [%] | inhibition at 10 µM [7] [%] | inhibition at 10 µM [8] [%] | inhibition at 10 µM [9] [%] | inhibition at 10 µM [10] [%] | inhibition at 10 µM [11] [%] | inhibition at 10 µM [12] [%] | inhibition at 10 µM [13] [%] | inhibition at 10 µM [14] [%] | inhibition at 10 µM [15] [%] | inhibition at 10 µM [16] [%] | inhibition at 10 µM [17] [%] | inhibition at 10 µM [18] [%] | inhibition at 10 µM [19] [%] | inhibition at 10 µM [20] [%] | other results
1 | COc1ccc(/C(CSc2nnc(-c3c[nH]c4ccccc34)n2-c2ccccc2)=N/O)cc1 [Compound 7g, (Z)-2-((5-(1H-Indol-3-yl)-4-phenyl-4H-1,2,4-triazol-3-yl)thio)-1-(4-methoxyphenyl) Ethanone Oxime] | 78.8 | 60.6 | 63.7 | 26.9 | 79.9 | 90.2 | 60.6 | 63.5 | 63.6 | 58.4 | 83.5 | 81.2 | 36.7 | 77.7 | 96.1 | 89.7 | 81.8 | 76.9 | 62.6 | 94.1 | inhibition at 10 µM [21]: 55%; inhibition at 10 µM [22]: 59.7%; inhibition at 10 µM [23]: 57.6%; inhibition at 10 µM [24]: 49.9%; inhibition at 10 µM [25]: 69.5%; inhibition at 10 µM [26]: 57%; inhibition at 10 µM [27]: 45%; inhibition at 10 µM [28]: 85.5%; inhibition at 10 µM [29]: 57.4%; inhibition at 10 µM [30]: 83.2%; inhibition at 10 µM [31]: 71.9%; inhibition at 10 µM [32]: 54.2%; inhibition at 10 µM [33]: 71.8%; inhibition at 10 µM [34]: 81.8%; inhibition at 10 µM [35]: 40.3%
2 | Cc1ccc(/C(CSc2nnc(-c3c[nH]c4ccccc34)n2-c2ccccc2)=N/O)cc1 [Compound 7h, (Z)-2-((5-(1H-Indol-3-yl)-4-phenyl-4H-1,2,4-triazol-3-yl)thio)-1-(p-tolyl)ethanone Oxime] | 49.8 | 89.6 | 87.6 | 83.3 | 127 | 119 | 180 | 76.2 | 142 | 46.7 | 135 | 98.4 | 144 | 162 | 114 | 147 | 141 | 147 | 37.5 | 37.3 | inhibition at 10 µM [21]: 157%; inhibition at 10 µM [22]: 119%; inhibition at 10 µM [23]: 142%; inhibition at 10 µM [24]: 64.3%; inhibition at 10 µM [25]: 85.3%; inhibition at 10 µM [26]: 160%; inhibition at 10 µM [27]: 149%; inhibition at 10 µM [28]: 155%; inhibition at 10 µM [29]: 165%; inhibition at 10 µM [30]: 187%; inhibition at 10 µM [31]: 97.4%; inhibition at 10 µM [32]: 137%; inhibition at 10 µM [33]: 106%; inhibition at 10 µM [34]: 93.5%; inhibition at 10 µM [35]: 97.8%
3 | O/N=C(\CSc1nnc(-c2c[nH]c3ccccc23)n1-c1ccccc1)c1ccc(Br)cc1 [Compound 7i, (Z)-2-((5-(1H-Indol-3-yl)-4-phenyl-4H-1,2,4-triazol-3-yl)thio)-1-(4-bromophenyl) Ethanone Oxime] | 97.9 | 90.3 | 141 | 110 | 194 | 113 | 186 | 130 | 173 | 85.9 | 106 | 111 | 120 | 184 | 136 | 94 | 93.7 | 164 | 126 | 166 | inhibition at 10 µM [21]: 155%; inhibition at 10 µM [22]: 109%; inhibition at 10 µM [23]: 166%; inhibition at 10 µM [24]: 109%; inhibition at 10 µM [25]: 99.3%; inhibition at 10 µM [26]: 188%; inhibition at 10 µM [27]: 183%; inhibition at 10 µM [28]: 143%; inhibition at 10 µM [29]: 183%; inhibition at 10 µM [30]: 183%; inhibition at 10 µM [31]: 136%; inhibition at 10 µM [32]: 177%; inhibition at 10 µM [33]: 111%; inhibition at 10 µM [34]: 96.4%; Cell growth inhibition % ([35]; 786-0, Renal cancer, 10 µM): 65.25%; inhibition at 10 µM [35]: 65%
